Source: ChEMBL document CHEMBL1201862, “PubChem BioAssay data set” (2004)
Active and inactive are the calls of the source. For most assays here, no stated cut-off is given here; in the data, actives have a measured EC50 and inactives only a lower limit.

Tests used:
[1] = biological target: T1, Replicative DNA helicase DnaB (Mycobacterium tuberculosis, UniProt P9WMR3); experiment: DnaB intein splicing inhibitors, dose response, biochemical, cell-free fluorescence (AID 449749); assay type: functional
T1 sequence (P9WMR3 whole entry): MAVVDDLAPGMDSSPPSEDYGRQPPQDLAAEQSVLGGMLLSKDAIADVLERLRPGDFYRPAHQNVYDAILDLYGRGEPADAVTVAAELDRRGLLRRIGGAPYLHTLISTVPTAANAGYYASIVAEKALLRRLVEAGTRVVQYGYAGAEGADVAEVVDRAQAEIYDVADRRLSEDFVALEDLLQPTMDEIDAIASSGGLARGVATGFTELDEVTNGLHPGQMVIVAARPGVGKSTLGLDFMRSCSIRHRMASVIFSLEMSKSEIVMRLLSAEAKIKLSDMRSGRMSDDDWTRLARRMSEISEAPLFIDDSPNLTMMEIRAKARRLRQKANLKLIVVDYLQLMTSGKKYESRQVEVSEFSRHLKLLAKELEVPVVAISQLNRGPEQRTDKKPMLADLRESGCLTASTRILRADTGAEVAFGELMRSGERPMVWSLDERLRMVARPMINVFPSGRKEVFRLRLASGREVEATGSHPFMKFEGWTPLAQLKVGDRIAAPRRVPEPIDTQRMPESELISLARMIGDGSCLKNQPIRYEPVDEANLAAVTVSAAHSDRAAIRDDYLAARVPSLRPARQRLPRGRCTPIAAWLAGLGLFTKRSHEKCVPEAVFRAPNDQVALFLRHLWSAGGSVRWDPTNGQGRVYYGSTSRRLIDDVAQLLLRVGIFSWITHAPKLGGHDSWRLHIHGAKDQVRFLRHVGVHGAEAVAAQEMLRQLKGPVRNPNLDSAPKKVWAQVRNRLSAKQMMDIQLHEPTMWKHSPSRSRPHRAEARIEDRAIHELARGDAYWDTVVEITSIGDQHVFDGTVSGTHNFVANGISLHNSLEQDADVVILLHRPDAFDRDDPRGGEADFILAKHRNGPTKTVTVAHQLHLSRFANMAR

Protein RecA = biological target: T2, Protein RecA (Mycobacterium tuberculosis, UniProt P9WHJ3); experiment: Fluorescence Cell-Free Homogeneous Dose Retest to Identify Inhibitors of RecA-Intein Splicing Activity. [Related pubchem assays (depositor defined):AID2097, AID2223, AID489010, AID492950]; assay type: functional
T2 sequence (P9WHJ3 whole entry): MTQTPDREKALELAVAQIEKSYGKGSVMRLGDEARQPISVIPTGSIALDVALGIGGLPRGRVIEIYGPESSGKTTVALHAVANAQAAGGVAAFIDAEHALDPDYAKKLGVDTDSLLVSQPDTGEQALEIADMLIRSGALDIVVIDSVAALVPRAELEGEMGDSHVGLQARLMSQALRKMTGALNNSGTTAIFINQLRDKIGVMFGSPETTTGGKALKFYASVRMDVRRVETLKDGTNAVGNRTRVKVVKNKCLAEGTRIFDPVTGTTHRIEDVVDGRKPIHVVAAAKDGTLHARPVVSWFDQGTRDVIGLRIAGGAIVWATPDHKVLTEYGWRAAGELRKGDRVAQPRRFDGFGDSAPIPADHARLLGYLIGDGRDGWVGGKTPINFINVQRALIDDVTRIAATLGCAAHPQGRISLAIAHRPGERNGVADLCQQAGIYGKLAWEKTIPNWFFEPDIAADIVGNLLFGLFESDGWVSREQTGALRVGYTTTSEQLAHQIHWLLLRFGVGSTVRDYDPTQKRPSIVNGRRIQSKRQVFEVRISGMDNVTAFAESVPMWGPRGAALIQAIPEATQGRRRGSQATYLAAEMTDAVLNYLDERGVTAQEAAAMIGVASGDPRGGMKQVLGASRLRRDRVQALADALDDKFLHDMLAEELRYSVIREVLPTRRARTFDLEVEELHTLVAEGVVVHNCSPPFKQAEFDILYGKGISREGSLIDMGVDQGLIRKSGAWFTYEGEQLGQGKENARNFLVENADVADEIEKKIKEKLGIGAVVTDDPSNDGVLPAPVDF

H9c2 = experiment: cells; assay type: functional, cell-based; settings: Rattus norvegicus, H9c2, Myocardium;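 further: confirmatory concentration-response retest of ultra-high-throughput screening hits for modulation of myocardial damage; cell death induced by hydrogen peroxide oxidative stress; compound pretreatment for 60 min then peroxide exposure for 2 h; potency is for protecting the cells against peroxide damage rather than for killing them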
[2] = biological target: T3, Heat shock factor protein 1 (Mus musculus, UniProt P38532); experiment: decrease of HSF1-responsive luciferase luminescence – cell-based, NIH3T3, dose retest, confirmation (AID 2382); assay type: functional;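 further: NIH3T3 fibroblasts with HSF1-driven luciferase reporter stressed by proteasome inhibitor MG132; luminescence from HSF1-driven luciferase expression after 8 hours of MG132 stress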
T3 sequence (P38532 whole entry): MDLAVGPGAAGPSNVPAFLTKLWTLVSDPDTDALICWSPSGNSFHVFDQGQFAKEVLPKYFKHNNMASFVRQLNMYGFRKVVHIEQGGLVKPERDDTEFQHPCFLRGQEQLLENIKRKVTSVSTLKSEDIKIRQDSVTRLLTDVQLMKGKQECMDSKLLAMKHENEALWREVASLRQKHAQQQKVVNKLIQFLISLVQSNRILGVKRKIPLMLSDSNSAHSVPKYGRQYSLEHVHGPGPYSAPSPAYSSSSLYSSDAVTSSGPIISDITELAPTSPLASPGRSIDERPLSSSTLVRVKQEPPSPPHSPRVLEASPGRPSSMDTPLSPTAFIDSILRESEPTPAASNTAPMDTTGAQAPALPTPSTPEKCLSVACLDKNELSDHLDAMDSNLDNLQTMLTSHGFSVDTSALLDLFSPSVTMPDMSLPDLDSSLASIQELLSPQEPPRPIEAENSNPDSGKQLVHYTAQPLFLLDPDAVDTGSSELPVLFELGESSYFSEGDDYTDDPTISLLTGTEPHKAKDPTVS

[3] = test system: Streptococcus sp. 'group A'; experiment: Streptococcus pyogenes SK(-)GAS viability under kanamycin – luminescence, BacTiterGlo, confirmation, counter-screen for streptokinase expression inhibitor project, dose response (AID 1900); assay type: functional, organism-based
Streptokinase A = biological target: T4, Streptokinase A (Streptococcus pyogenes serotype M1, UniProt P10520); experiment: viability-normalized secreted streptokinase activity reduction – plasminogen activation absorbance, OD405, dose response (AID 1914); assay type: functional, Streptococcus pyogenes M1 GAS;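 further: secreted streptokinase activity via plasminogen activation per viability signal from cell pellet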
T4 sequence (P10520 whole entry): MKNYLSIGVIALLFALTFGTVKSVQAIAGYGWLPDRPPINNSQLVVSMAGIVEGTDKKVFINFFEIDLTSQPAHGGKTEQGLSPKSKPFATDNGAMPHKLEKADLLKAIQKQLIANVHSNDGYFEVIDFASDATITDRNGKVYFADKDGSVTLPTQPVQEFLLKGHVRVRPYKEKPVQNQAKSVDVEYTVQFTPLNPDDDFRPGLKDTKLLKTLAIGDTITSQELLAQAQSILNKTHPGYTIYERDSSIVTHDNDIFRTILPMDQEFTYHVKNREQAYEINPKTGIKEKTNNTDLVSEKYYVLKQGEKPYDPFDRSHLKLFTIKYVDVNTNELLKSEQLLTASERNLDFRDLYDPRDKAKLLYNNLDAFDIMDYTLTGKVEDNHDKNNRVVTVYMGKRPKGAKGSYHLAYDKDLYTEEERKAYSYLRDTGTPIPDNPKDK

[4] = Trypanosoma cruzi growth suppression in host cells – NIH3T3 host cells, beta-gal luminescence, confirmation (AID 2044); assay type: functional, cell-based;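 further: intracellular parasites grown in NIH/3T3 mouse fibroblasts as host cells; luminescent beta-galactosidase reporter signal from transgenic T. cruzi replicating inside host cells; inhibitors lower the luminescence signal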
[5] = NIH3T3 cell viability loss – ATP luminescence, mouse fibroblasts, counter-screen, dose response (AID 2010); assay type: functional, cell-based;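 further: cells exposed to compound for about 90 hours before reading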
Streptococcus = experiment: GAS UMAA2166 growth inhibition – luminescence, BacTiterGlo, counter-screen for streptokinase expression inhibitor project, dose response (AID 1915); assay type: functional, organism-based;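 further: potency for reduction of bacterial viability or growth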
Cytochrome P450 3A4 = Cytochrome P450 3A4 (Homo sapiens, UniProt P08684);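 further: CYP3A4 tested as one member of a cytochrome P450 panel screen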
Chain of Cytochrome P450 3A4 (P08684 whole entry): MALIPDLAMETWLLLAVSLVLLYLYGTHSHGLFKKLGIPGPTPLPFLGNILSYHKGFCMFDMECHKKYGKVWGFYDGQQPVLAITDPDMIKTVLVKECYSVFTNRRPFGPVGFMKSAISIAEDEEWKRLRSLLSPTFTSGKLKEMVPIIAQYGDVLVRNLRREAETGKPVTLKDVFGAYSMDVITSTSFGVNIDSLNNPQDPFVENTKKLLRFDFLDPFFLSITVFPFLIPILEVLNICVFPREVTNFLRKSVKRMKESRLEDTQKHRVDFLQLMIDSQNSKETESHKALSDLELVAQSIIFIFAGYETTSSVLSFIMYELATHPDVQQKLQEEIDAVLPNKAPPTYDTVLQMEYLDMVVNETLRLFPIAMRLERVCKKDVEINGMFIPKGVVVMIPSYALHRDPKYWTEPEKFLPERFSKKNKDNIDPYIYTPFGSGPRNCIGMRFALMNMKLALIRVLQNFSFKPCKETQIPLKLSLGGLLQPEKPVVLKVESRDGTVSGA

COc1ccc(C2NC(S)=NC3=C2CCc2ccccc23)cc1OC (configuration not stated)
AC50 [1]: 20 µM (active)
EC50 (Protein RecA): 11.2 µM (active)

CCOC(=O)c1[nH]c2cc(OC)c(OC)cc2c1NC(=O)C(C)N1CCN(Cc2ccccc2)CC1 (configuration not stated)
IC50 (H9c2): 10.2 µM (active)

O=C(O)CSc1c2c(nc3cc(C(=O)Nc4cccc(C(F)(F)F)c4)ccc13)CCCC2
AC50 [1]: 22.6 µM (active)
EC50 (Protein RecA): 13 µM (active)

Cc1ccc(C)c(C(=O)Nc2cc(C)nn2-c2nc(C)cc(C)n2)c1
EC50 [2]: > 195 µM (not active)
IC50 (H9c2): > 79 µM (inactive)

CCOc1cc(/C=C/c2ccc3cccc([N+](=O)[O-])c3n2)ccc1OCC(=O)N(C)C
IC50 (H9c2): 10.7 µM (active)

CCOc1cc(C(=S)N2CCOCC2)ccc1OS(=O)(=O)c1ccc(OC)cc1
EC50 [2]: > 195 µM (not active)

COC(=O)c1ccccc1S(=O)(=O)N1CCC(NC(=O)c2ccccc2)CC1
AC50 [1]: 3.36 µM (active)
EC50 (Protein RecA): 15.1 µM (active)

Cc1cc(C)nc(SCc2ccc(C(=O)N/N=C/c3ccccn3)cc2)n1
IC50 (H9c2): > 79 µM (inactive)

CCOC(=O)/C(=N\Nc1ccc(OC)cc1)c1csc(Nc2ccccc2)n1
EC50 [3]: 3.87 µM (active)
EC50 (Streptokinase A): > 150 µM (not active)
EC50 [4]: 1.33 µM (active)
EC50 [5]: 9.87 µM (active)
EC50 (Streptococcus): 10.8 µM (active)

C=CCC(Nc1ccccc1)c1ccc(OC)c(OC)c1 (configuration not stated)
EC50 [2]: > 195 µM (not active)

COC(=O)c1[nH]c2ccccc2c1NC(=O)CNC1CCCCC1
IC50 (H9c2): > 79 µM (inactive)

CCOC(=O)Cc1n[nH]c2c1C(c1cccc(OC)c1OC)C(C#N)=C(N)O2 (configuration not stated)
AC50 [1]: 34.7 µM (inconclusive)
EC50 (Protein RecA): > 380 µM (inactive)

COc1ccccc1CNC(=O)N1CCN(c2ccccc2C)CC1
EC50 [2]: > 195 µM (not active)

COc1cccc(-c2cnc3c(NC=O)cc(-c4cc(C)c(O)c(C)c4)cn23)c1
IC50 (H9c2): > 79 µM (inactive)

CCS(=O)(=O)N1CCC2(CC1)OCCN2S(=O)(=O)c1ccc(OC)cc1
EC50 [2]: > 195 µM (not active)

COc1ccc(/C=C/C(=O)N2CCN(c3ccccn3)CC2)cc1OC
EC50 [2]: > 195 µM (not active)

CCN(CC(=O)Nc1c(F)cccc1F)C(=O)Cn1[nH]c(=O)c2ccccc2c1=O
IC50 (H9c2): > 79 µM (inactive)

CC(C)c1ccccc1NC(=O)COC(=O)c1c2c(nc3ccccc13)CCN(Cc1ccccc1)C2
IC50 (H9c2): > 79 µM (inactive)

CSc1ncccc1C(=O)N1CCCC(N2CCN(c3ccccc3F)CC2)C1 (configuration not stated)
EC50 [2]: > 195 µM (not active)

Cc1cccc(Sc2c(C=O)c3ccccc3n2C)c1
AC50 [1]: 5.7 µM (active)
EC50 (Protein RecA): 29.6 µM (active)

COc1ccc([N+](=O)[O-])cc1NC(=O)C(C)OC(=O)Cn1[nH]c(=O)c2ccccc2c1=O (configuration not stated)
IC50 (H9c2): > 79 µM (inactive)

CC(C)c1nc2ccccc2c2nnc(SCC(=O)NCc3ccco3)n12
EC50 [2]: > 195 µM (not active)

Cc1c(C(=O)Nc2ccc3nc(N4CCOCC4)sc3c2)oc2ccccc12
IC50 (H9c2): > 79 µM (inactive)

COc1cccc(CNC(=O)c2ccccc2SCC(=O)N2CCCC2)c1
EC50 [2]: > 195 µM (not active)

COc1cc(/C=C(\C#N)C(=O)Nc2ccccc2)ccc1OCCN1CCOCC1
IC50 (H9c2): > 79 µM (inactive)

COc1ccc(-c2cc(-c3ccc(O)cc3)nc(N)c2C#N)cc1OC
IC50 (H9c2): > 79 µM (inactive)

COc1cc2c(cc1OC)CN(c1nc(-c3cccnc3)nc3ccccc13)CC2
IC50 (H9c2): > 79 µM (inactive)

Cc1cccc2sc(NC(=O)[C@H](C)N3C(=O)C4CC=CCC4C3=O)nc12 (some centres not stated)
EC50 [2]: > 195 µM (not active)

O=C1CC(CSc2ccc(Cl)cc2)=NN1
AC50 [1]: 3.23 µM (active)
EC50 (Protein RecA): 1.61 µM (active)

CSc1n[nH]c(-c2sccc2OCc2ccc(C)cc2)n1
AC50 (Cytochrome P450 3A4): 20 µM (inconclusive)

CCn1cc(C(=O)OCC(=O)c2cc(C)n(-c3cccc(C(F)(F)F)c3)c2C)c(=O)c2ccc(C)nc21
EC50 [3]: 5.68 µM (active)
EC50 (Streptokinase A): 21.6 µM (active)
EC50 (Streptococcus): > 50 µM (not active)

CCCc1n[nH]c2c1C(c1ccc(OCCN3CCOCC3)c(OC)c1)C(C#N)=C(N)O2 (configuration not stated)
AC50 [1]: 41.4 µM (active)
EC50 (Protein RecA): 9.37 µM (active)

CC(C)c1ccc(OCCCN2CCCC2)cc1
EC50 [2]: > 195 µM (not active)

Oc1ncnc2sc3c(c12)CCC3
IC50 (H9c2): 23 µM (active)

CCCC(C)NS(=O)(=O)c1ccccc1 (configuration not stated)
EC50 [2]: > 195 µM (not active)

COc1cc2nc(S)n3nc(COc4ccccc4C)nc3c2cc1OC
EC50 [3]: 4.21 µM (active)
EC50 (Streptokinase A): > 150 µM (not active)
EC50 (Streptococcus): 10.5 µM (active)

Cc1ccc(CSC(=N)Nc2ccccc2)cc1C
AC50 (Cytochrome P450 3A4): 3.16 µM (inconclusive)

O=C(O)C1CSC(c2ccc3c(c2)OCO3)N1 (configuration not stated)
EC50 [2]: > 195 µM (not active)

COc1ccc(N2C(=O)CC(NNc3ncc(Cl)cc3Cl)C2=O)cc1 (configuration not stated)
EC50 [2]: > 195 µM (not active)

CCOC(=O)c1c(NC(=O)COC(=O)c2ccc(C)s2)sc2c1CC(C)(C)NC2(C)C
EC50 [3]: 2.43 µM (active)
EC50 (Streptokinase A): > 150 µM (not active)
EC50 (Streptococcus): 26.8 µM (active)

CO[C@H]1COC(=O)[C@@H](C)COC(=O)[C@@H](Cc2ccccc2)NC(=O)C/C=C\[C@H]1C
AC50 (Cytochrome P450 3A4): 6.31 µM (inconclusive)

Cc1cc2c(=O)n(Cc3ccco3)c(SCC(=O)N3CCCc4ccccc43)nc2s1
EC50 [3]: 20.4 µM (active)
EC50 (Streptokinase A): 31.8 µM (active)
EC50 (Streptococcus): > 150 µM (not active)
